The test system of assay [1] is human adult epidermal keratinocytes (HEKa). Nature of the assay: Microarray gene expression in keratinocytes in vitro. It is filed as cell-based. The settings on record: 170 nM. The method, then: (§1) In addition to disrupting the structure of biofilms comprising Gram-negative bacteria, effects of epoxytiglienones on regulation of genes involved in host response to bacterial infection were investigated in microarray studies with human adult epidermal keratinocytes (HEKa) and human adult dermal fibroblasts (HDF) in vitro.
(§2) For these studies, HEKa were cultured in EpiLife® Medium supplemented with Supplement S7 (both from Life Technologies, Carlsbad, CA, USA), while HDF were cultured in Medium 106 supplemented with LSGS (Low Serum Growth Supplement) (both from Life Technologies). Cells where then treated with vehicle or 170 nM Compound 4 for 0, 0.5, 1, 2, 4, 8, 24, 48 and 72 hours. RNA was extracted using a Qiagen RNeasy mini kit and biotinylated using an Illumina TotalPrep RNA Amplification Kit (Ambion, Austin, TX, USA). Labelled RNA was hybridised to HumanHT-12 v4 BeadChip Arrays (Illumina Inc, San Diego, CA, USA) and scanned according to standard Illumina protocols. Data were extracted in GenomeStudio (Illumina) using default analysis settings and no normalisation method. Resulting data were imported into GeneSpring GX (Agilent, Santa Clara, CA, USA. Expression values were normalised using quantile normalisation with default settings.

Assay [2] relates to E. coli IR57 biofilm. Nature of the assay: Multiple particle tracking (MPT) of 200 nm FluoSpheres in established biofilm. The class given is cell-based, Escherichia coli. The method, then: The effect of three epoxytiglienones (Compounds 1, 4 and 6) on the assembly and permeability of established biofilms of E. coli was assessed using multiple particle tracking (MPT). MPT is a recently described technique, allowing simultaneous tracking of micron-size particles through biofilms using microscopy, from which the diffusion-based parameters of embedded particles within the extracellular polymeric matrix (EPS) of the biofilm can be determined (Cao et al. 2016). MPT measurements also allows for calculation of micro-rheological properties of the biofilm structure following treatment with test compounds.
E. coli biofilms were established and epoxytiglienone and control treatments applied as described in Example 2 above. Twenty-four hours after application of the treatments, the biofilms were stained with SYTO9® and 0.0025% of negatively-charged, carboxylate-modified FluoSpheres® (200 nm) added onto the biofilms and incubated for a further 2 hours. FluoSphere® particle movements within the biofilms were then captured on video using epifluorescence microscopy with a high frame-rate camera (33 ms). Particle trajectories were tracked using ImageJ softwaren (Mosaic) before calculation of three parameters of the 200 nm FluoSphere® particles: (i) ensemble diffusion coefficient (Deff), (ii) ensemble mean squared displacement (MSD) and (iii) creep compliance (a measure of resistance to mechanical deformation derived from the MSD vs lag time). Each treatment was replicated three times.

Assay [3] has as its system human adult dermal fibroblasts (HDF). Kind of assay: Microarray gene expression in fibroblasts in vitro. The class given is cell-based. As to conditions: 170 nM, within 2 to 4 hours. The method, then:
as §1, §2

For assay [4], the system named is chronic biofilm infection. Kind of assay: Diabetic murine model of chronic biofilm infection (excisional wound). It is filed as in vivo, db/db diabetic mice. As to conditions: 0.3 mg/mL in hydrogel, topical at 24 h, 8 and 15 days; assessed day 21 to 28 post wounding; 7 mice. From the text:
The effects of administration of Compound 4 on biofilm infection in vivo was studied in a diabetic murine model of chronic biofilm infection (Zhao et al. 2010). In this study we used methods described by Dhall et al. (2014) in which bacterial biofilm infections develop spontaneously following wound creation.
Briefly, db/db diabetic mice (>6 months old) were housed for 4-5 weeks in non-sterile conditions prior to the creation of wound on the back of each mouse with a 6 mm diameter excisional punch biopsy. Mice were then administered a catalase inhibitor intra-peritoneally (1 g/kg aminotriazole) and a glutathione peroxidase (GPx) inhibitor topically around the edge of the wound site (1 g/kg mercaptosuccinic acid) prior to dressing with Tegaderm. After 24 h, biofilms were evident at the wound site on all mice. The mice where divided into two groups (7 mice per group) and treated with either Compound 4 (0.3 mg/mL in a hydrogel vehicle) or a Control treatment (hydrogel vehicle only). The Tegaderm dressing was the then replaced. Two further administrations of Compound 4 or the Control (vehicle only) were performed at 8 and 15 days. No antibiotics or other antibacterial treatments were applied during the study.
The presence of biofilm and the surface area of the wound were assessed over the course of the study. […]

Assay [5] relates to P. aeruginosa PAO1 biofilm. Kind of assay: Disruption of established in vitro biofilm, CLSM with COMSTAT image analysis. As to conditions: 256 μg/mL. The class given is cell-based, Pseudomonas aeruginosa. The method, then:
Biofilms of E. coli IR57 were grown on 96-well glass-bottomed plates in Mueller-Hinton (MH) broth for 24 h, before 50% of the supernatant was replaced with fresh MH broth with or without the epoxytiglienone compound added to a final concentration of 256 μg/mL (vehicle is ethanol). An ethanol equivalent blank was used as a further control treatment. The plates were then incubated for a further 24 h at 37° C.
Confocal laser scanning microscopy (CLSM) was then used to image the biofilms, following staining with Live/Dead® Baclight stain with phosphate buffered saline (PBS) added to each well before imaging with z-stack CLSM. The resultant images were analysed by COMSTAT software to produce measurements of (i) biofilm biomass volume or bio-volume (μm^3/μm^2) and (ii) DEAD/LIVE bacterial ratio.
The effects of the epoxytiglienones (Compounds 1, 4, 6 and the comparator compound CC-1) on disruption of established in vitro biofilms were further investigated with two other species of Gram-negative bacteria (Pseudomonas aeruginosa PA01 and Acinetobacter baumannii 7789) using methods described in Example 2 above. Cell permeabilisation following Compound 1, 4 and 6 treatment was also determined using SYTOX™ Green Nucleic Acid Stain with untreated control and positive control of 70% isopropanol.

Take `CCCCCC(=O)OC1C(C)C2(O)C(C3OC3(CO)C(O)C3(O)C(=O)C(C)=CC32)C2C(C)(C)C12OC(=O)CCCCC` (stereo not shown) [Compound 4, 12,13-dihexanoyl-6,7-epoxy-4,5,9,12,13,20-hexahydroxy-1-tiglien-3-one]: in assay [1] (from 8 to 72 hours post treatment), the “production of host defence peptides (DEFB2, DEFB3, DEFB4, RNASE7)” value is on record as “significantly upregulated”. The “expression of chemokines/cytokines involved in PMNL recruitment (IL8, CXCL1)” value in assay [1] (within 2 to 4 hours) and in assay [3] was “significant upregulation” throughout. The “Diffusion coefficient (Deff) ± standard deviation” value in assay [2] (200 nm negatively-charged carboxylate-modified FluoSpheres in E. coli IR57 biofilms, 256 μg/mL, 24 h treatment) is 0.8449 ± 0.1250 cm^2 · s^−1 × 10^−9. Further, the “mean squared displacement (MSD) of FluoSphere particles” value in assay [2] (E. coli IR57 biofilm, 200 nm FluoSpheres, vs untreated and ethanol blank controls) is “substantially higher”. The biofilm creep compliance result in assay [2] (E. coli IR57 biofilm, derived from MSD vs lag time, vs untreated and ethanol blank controls) is on record as “increased”. In assay [4], the “mice with complete wound healing (complete re-epithelialisation, resolution of inflammation, absence of bacteria within the dermis)” value was 6 of the 7. Besides, the “biofilm distribution (CLSM)” value in assay [5] (compared to other treatments) is given as “significant effect”. Also, the “biofilm bio-volume (COMSTAT)” value in assay [5] (compared to other treatments (P<0.05)) was “significant effect”. In assay [5] (vs untreated and ethanol blank controls), the DEAD/LIVE bacterial ratio result was “no significant differences”.

The values are drawn from patent US12514843B2, “Biofilm disruption” (QBIOTICS PTY LTD, priority 2019, dated 2026).
